Results from patent publication US20240381872A1, “SUBSTITUTED 2,3-DIHYDRO[1,3]THIAZOLO[4,5-B]PYRIDINES, SALTS THEREOF AND THEIR USE AS HERBICIDALLY ACTIVE SUBSTANCES” (BAYER AKTIENGESELLSCHAFT, priority 2021, published 2024).

Columns and labels:
Format in all cases: in vivo
Poa annua (POAAN) = test: Herbicidal pre-emergence action, section A (Table A7); details: application rate 320 g/ha; visual grading after ca. 3 weeks vs untreated controls
Method in brief: (§1)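 Percent herbicidal effect, visually graded about 3 weeks post-treatment against untreated pots, reflects pre-emergence application of WP or EC formulations to the soil surface over seeds sown in sandy loam, using 0.5% additive and 600 l of water per hectare.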

Setaria viridis (SETVI) [1] = test: Herbicidal pre-emergence action, section A (Table A8); details: application rate 320 g/ha
Method in brief: as §1

[2] = tested on: Amaranthus retroflexus (AMARE); test: Herbicidal pre-emergence action, section A (Table A11); details: application rate 320 g/ha
Method in brief: as §1

Setaria viridis (SETVI) [3] = test: Herbicidal post-emergence action, section B (Table B8); details: application rate 1280 g/ha; visual rating about 3 weeks after treatment vs untreated controls
Method in brief: (§2)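 In this greenhouse assay, compounds in WP or EC form were applied post-emergence with 0.5% additive at a water rate of 600 liters per hectare. Treatment took place at the one-leaf stage, and injury was rated visually about 3 weeks later against untreated plants.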

Stellaria media (STEME) = test: Herbicidal post-emergence action, section B (Table B9); details: application rate 1280 g/ha; visual rating about 3 weeks after treatment vs untreated controls
Method in brief: as §2

[4] = tested on: Amaranthus retroflexus (AMARE); test: Herbicidal post-emergence action, section B (Table B11); details: application rate 320 g/ha; visual rating about 3 weeks after treatment vs untreated controls
Method in brief: as §2

[5] = tested on: Alopecurus myosuroides (ALOMY); test: Herbicidal pre-emergence action, section C (Table C2); details: application rate 320 g/ha; visual grading after ca. 3 weeks vs untreated controls
Method in brief: (§3)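 Greenhouse pre-emergence test on sandy loam: spray of formulated compound onto covering soil at 600 l water/ha, then percent damage judged by eye after ca. 3 weeks relative to untreated pots.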

[6] = tested on: Matricaria inodora (MATIN); test: Herbicidal pre-emergence action, section C (Table C6); details: application rate 320 g/ha; visual grading after ca. 3 weeks
Source text: Seeds of mono- and dicotyledonous weed plants and crop plants were sown, in plastic or organic planting pots, in sandy loam and covered with soil. The compounds according to the invention, formulated in the form of wettable powders (WP) or as emulsifiable concentrates (EC), were applied to the surface of the covering soil as aqueous suspension or emulsion, with the addition of 0.5% of an additive, at an application rate of 600 l of water/ha (converted). Following treatment, the pots were placed in a greenhouse and kept under optimum growth conditions for the test plants. The visual grading of the damage to the test plants was carried out after ca. 3 weeks in comparison to untreated controls (herbicidal effect in percent (%): 100% effect=plants have died off, 0% effect=as control plants).

Veronica persica (VERPE) = test: Herbicidal pre-emergence action, section C (Table C10); details: application rate 320 g/ha; visual grading after ca. 3 weeks
Method in brief: as §3

Zea mays (ZEAMX) = test: Pre-emergence effects on crop plants, section D (Table D1); details: application rate 320 g/ha; visual grading after ca. 3 weeks
Method in brief: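 Pre-emergence soil-surface spray, 320 g/ha or below, 600 l water/ha + 0.5% additive; WP/EC formulations; sandy loam; greenhouse; visual % damage vs untreated at ~3 wk.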

[7] = tested on: Echinochloa crus-galli (ECHCG); test: Herbicidal post-emergence action, section E (Table E5); details: application rate 320 g/ha, visual assessment ca. 3 weeks after spraying
Source text: Seeds of mono- and dicotyledonous weed plants and crop plants were sown, in plastic or organic planting pots, in sandy loam, covered with soil and grown in a greenhouse under controlled growth conditions. 2 to 3 weeks after sowing, the test plants were sprayed in the single-leaf stage. The compounds according to the invention, formulated in form of wettable powders (WP) or as emulsifiable concentrates (EC), were sprayed onto the green plant parts as aqueous suspension or emulsion, with the addition of 0.5% of an additive, at an application rate of 600 l of water/ha (converted). The test plants were placed in the greenhouse for ca. 3 weeks under optimum growth conditions, and then the effect of the preparations was assessed visually in comparison with untreated controls (herbicidal effect in percent (%): 100% effect=plants have died off, 0% effect=as control plants).

SMILES: CC1(C(=O)N2CSc3cc(Br)c(-c4ccccc4)nc32)CC(Cl)=NO1 (centres unmarked) [Example I-139]
- pre-emergence activity against POAAN in % (Poa annua (POAAN)): 100%
- pre-emergence activity against SETVI in % (Setaria viridis (SETVI) [1]): 100%
- pre-emergence activity against AMARE in % [2]: 100%
- post-emergence activity against SETVI in % (Setaria viridis (SETVI) [3]): 90%
- post-emergence activity against STEME in % (Stellaria media (STEME)): 90%
- post-emergence activity against AMARE in % [4]: 90%
- pre-emergence activity against ALOMY in % [5]: 80%
- pre-emergence activity against MATIN in % [6]: 80%
- pre-emergence activity against VERPE in % (Veronica persica (VERPE)): 80%
- pre-emergence activity against ZEAMX in % (crop plant damage) (Zea mays (ZEAMX)): 20%
- post-emergence activity against ECHCG in % [7]: 90%
